According to patent publication US20020002171A1, “Materials and methods for killing nematodes and nematode eggs” (priority 2000, published 2002):

Test system: Caenorhabditis elegans
Assay: C. elegans L1 nematicidal dose response in 96-well plates, 5 day visual score (Example 2; same procedure for Example 7, Table 3)
Type: in vivo
Design: key to 5 Day Visual Score V1 / 5 Day Visual Score V2 / 5 Day Visual Score V3 / 5 Day Visual Score V4 / 5 Day Visual Score V6 / 5 Day Visual Score V5 / Initial HTS Run Visual Score / Follow-up HTS Run Visual Score: Dead: only stiff L1s (no movement); Dead (L4): worms are dead, but at a later larval stage; majority of worms are L1 (based on size) worms move when plate is tapped; majority of worms are L2 (based on size); majority of worms are L3 (based on size); majority of worms are L4 (based on size); AD: majority of worms are adult; #AD: 5 adult worms or less; B!: sterile (0-25 progeny); B: low broodsize (25-100 progeny); ˜B: moderate broodsize (100-250 progeny); <: reduced broodsize (250-500 progeny); OK: no effect (˜1000+ progeny)
Conditions: for 5 Day Visual Score V1 / 5 Day Visual Score V3 / 5 Day Visual Score V4 / 5 Day Visual Score V5 / 5 Day Visual Score V6 / 5 Day Visual Score V2: dose response; for 5 Day Visual Score V1: dilution V1, day 5; for 5 Day Visual Score V3: dilution V3, day 5; for 5 Day Visual Score V4: dilution V4, day 5; for 5 Day Visual Score V5: dilution V5, day 5; for 5 Day Visual Score V6: dilution V6, day 5; for 5 Day Visual Score V2: dilution V2, day 5
Method in brief: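 Scoring was by eye at 100× on day 5, after incubation at 20° C, of 20 C. elegans L1s per well fed 1% E. coli HB101 in NGM. Compound columns V1–V6 spanned 70 μM to 0.3 μM in 3-fold steps, with 1.4% DMSO in the top well and as control.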

Compound: Fc1cccc(F)c1CNc1nsc(N2CCN(c3cccc(C(F)(F)F)c3)CC2)n1 [compound 246]
- Follow-up HTS Run % Run: 130%
- Follow-up HTS Run mOD: 209 mOD
- Initial HTS Run % Run: 123%
- Initial HTS Run Visual Score: L3
- Initial HTS Run mOD: 135 mOD
- 5 Day Visual Score V1: Dead
- 5 Day Visual Score V3: OK (no effect (˜1000+ progeny))
- 5 Day Visual Score V4: OK (no effect (˜1000+ progeny))
- 5 Day Visual Score V5: OK (no effect (˜1000+ progeny))
- 5 Day Visual Score V6: OK (no effect (˜1000+ progeny))

Compound: CC1CCN(c2nc(NCc3ccc(C(F)(F)F)cc3)ns2)CC1 [compound 247]
- Follow-up HTS Run % Run: 105%
- Follow-up HTS Run mOD: 169 mOD
- Initial HTS Run % Run: 91%
- Initial HTS Run mOD: 100 mOD
- 5 Day Visual Score V2: ˜B (moderate broodsize (100-250 progeny))
- 5 Day Visual Score V3: OK (no effect (˜1000+ progeny))
- 5 Day Visual Score V4: OK (no effect (˜1000+ progeny))
- 5 Day Visual Score V5: OK (no effect (˜1000+ progeny))
- 5 Day Visual Score V6: OK (no effect (˜1000+ progeny))

Compound: CC1CC(C)CN(c2nc(NCc3ccc(C(F)(F)F)cc3)ns2)C1 (centres unmarked) [compound 248]
- Follow-up HTS Run % Run: 112%
- Follow-up HTS Run Visual Score: L3/L4/AD/B!
- Follow-up HTS Run mOD: 181 mOD
- Initial HTS Run % Run: 99%
- Initial HTS Run Visual Score: L3/L4/AD/B
- Initial HTS Run mOD: 109 mOD
- 5 Day Visual Score V2: ˜B (moderate broodsize (100-250 progeny))
- 5 Day Visual Score V3: < (reduced broodsize (250-500 progeny))
- 5 Day Visual Score V4: OK (no effect (˜1000+ progeny))
- 5 Day Visual Score V5: OK (no effect (˜1000+ progeny))
- 5 Day Visual Score V6: OK (no effect (˜1000+ progeny))

Compound: CCN(CC)C(=O)C1CCCN(c2nc(NCc3ccc(C(F)(F)F)cc3)ns2)C1 (centres unmarked) [compound 249]
- Follow-up HTS Run % Run: 112%
- Follow-up HTS Run mOD: 180 mOD
- Initial HTS Run % Run: 98%
- Initial HTS Run mOD: 108 mOD
- 5 Day Visual Score V2: ˜B (moderate broodsize (100-250 progeny))
- 5 Day Visual Score V3: OK (no effect (˜1000+ progeny))
- 5 Day Visual Score V4: OK (no effect (˜1000+ progeny))
- 5 Day Visual Score V5: OK (no effect (˜1000+ progeny))
- 5 Day Visual Score V6: OK (no effect (˜1000+ progeny))

Compound: FC(F)(F)c1ccc(CNc2nsc(N3CCN(c4cccc(C(F)(F)F)c4)CC3)n2)cc1 [compound 250]
- Follow-up HTS Run % Run: 125%
- Follow-up HTS Run mOD: 201 mOD
- Initial HTS Run % Run: 108%
- Initial HTS Run Visual Score: L2 - (Dead L3)
- Initial HTS Run mOD: 119 mOD
- 5 Day Visual Score V1: L3/Dead(L3)
- 5 Day Visual Score V2: L4/#AD/B!
- 5 Day Visual Score V3: B (low broodsize (25-100 progeny))
- 5 Day Visual Score V4: OK (no effect (˜1000+ progeny))
- 5 Day Visual Score V5: OK (no effect (˜1000+ progeny))
- 5 Day Visual Score V6: OK (no effect (˜1000+ progeny))

Compound: CC(O)CN(CC(C)O)c1nc(NCc2ccc(C(F)(F)F)cc2)ns1 (centres unmarked) [compound 252]
- Follow-up HTS Run % Run: 100%
- Follow-up HTS Run Visual Score: L2 - Dead L3
- Follow-up HTS Run mOD: 161 mOD
- Initial HTS Run % Run: 100%
- Initial HTS Run Visual Score: Dead(L3)
- Initial HTS Run mOD: 110 mOD
- 5 Day Visual Score V1: Dead(L3)
- 5 Day Visual Score V2: Dead(L3)
- 5 Day Visual Score V4: < (reduced broodsize (250-500 progeny))
- 5 Day Visual Score V5: < (reduced broodsize (250-500 progeny))
- 5 Day Visual Score V6: < (reduced broodsize (250-500 progeny))

Compound: OCCN(CCO)c1nc(NCc2ccc(C(F)(F)F)cc2)ns1 [compound 254]
- Follow-up HTS Run % Run: 113%
- Follow-up HTS Run Visual Score: L2 - Dead L3
- Follow-up HTS Run mOD: 182 mOD
- Initial HTS Run % Run: 105%
- Initial HTS Run Visual Score: Dead(L3)
- Initial HTS Run mOD: 116 mOD
- 5 Day Visual Score V1: Dead(L3)
- 5 Day Visual Score V3: < (reduced broodsize (250-500 progeny))
- 5 Day Visual Score V4: OK (no effect (˜1000+ progeny))
- 5 Day Visual Score V5: OK (no effect (˜1000+ progeny))
- 5 Day Visual Score V6: OK (no effect (˜1000+ progeny))

Compound: OCCN(Cc1ccccc1)c1nc(NCc2ccc(C(F)(F)F)cc2)ns1 [compound 255]
- Follow-up HTS Run % Run: 98%
- Follow-up HTS Run Visual Score: L1/L2 - Dead L3
- Follow-up HTS Run mOD: 157 mOD
- Initial HTS Run % Run: 94%
- Initial HTS Run Visual Score: Dead(L3)
- Initial HTS Run mOD: 103 mOD
- 5 Day Visual Score V1: Dead
- 5 Day Visual Score V2: Dead
- 5 Day Visual Score V3: OK (no effect (˜1000+ progeny))
- 5 Day Visual Score V4: OK (no effect (˜1000+ progeny))
- 5 Day Visual Score V5: OK (no effect (˜1000+ progeny))
- 5 Day Visual Score V6: OK (no effect (˜1000+ progeny))

Compound: CN(CCO)c1nc(NCc2ccc(C(F)(F)F)cc2)ns1 [compound 256]
- Follow-up HTS Run % Run: 112%
- Follow-up HTS Run Visual Score: L2 - Dead L3
- Follow-up HTS Run mOD: 180 mOD
- Initial HTS Run % Run: 106%
- Initial HTS Run Visual Score: L2 - (Dead L3)
- Initial HTS Run mOD: 117 mOD
- 5 Day Visual Score V1: Dead
- 5 Day Visual Score V3: OK (no effect (˜1000+ progeny))
- 5 Day Visual Score V4: OK (no effect (˜1000+ progeny))
- 5 Day Visual Score V5: OK (no effect (˜1000+ progeny))
- 5 Day Visual Score V6: OK (no effect (˜1000+ progeny))

Compound: COCCN(CCOC)c1nc(NCc2ccc(C(F)(F)F)cc2)ns1 [compound 257]
- Follow-up HTS Run % Run: 104%
- Follow-up HTS Run Visual Score: L4/AD/B!
- Follow-up HTS Run mOD: 168 mOD
- Initial HTS Run % Run: 91%
- Initial HTS Run Visual Score: L4/AD/B!
- Initial HTS Run mOD: 100 mOD
- 5 Day Visual Score V1: L1
- 5 Day Visual Score V2: ˜B (moderate broodsize (100-250 progeny))
- 5 Day Visual Score V3: OK (no effect (˜1000+ progeny))
- 5 Day Visual Score V4: OK (no effect (˜1000+ progeny))
- 5 Day Visual Score V5: OK (no effect (˜1000+ progeny))
- 5 Day Visual Score V6: OK (no effect (˜1000+ progeny))

Compound: FC(F)(F)c1cccc(N2CCN(c3nc(NCc4ccccc4C(F)(F)F)ns3)CC2)c1 [compound 258]
- Follow-up HTS Run % Run: 124%
- Follow-up HTS Run Visual Score: B! (sterile (0-25 progeny))
- Follow-up HTS Run mOD: 200 mOD
- Initial HTS Run % Run: 111%
- Initial HTS Run Visual Score: L4/AD/B!-Few Eggs
- Initial HTS Run mOD: 122 mOD
- 5 Day Visual Score V3: ˜B (moderate broodsize (100-250 progeny))
- 5 Day Visual Score V4: ˜B (moderate broodsize (100-250 progeny))
- 5 Day Visual Score V5: OK (no effect (˜1000+ progeny))
- 5 Day Visual Score V6: OK (no effect (˜1000+ progeny))

Compound: CCCN(CC1CC1)c1nc(NCc2ccccc2C(F)(F)F)ns1 [compound 260]
- Follow-up HTS Run % Run: 147%
- Follow-up HTS Run Visual Score: L2
- Follow-up HTS Run mOD: 236 mOD
- Initial HTS Run % Run: 122%
- Initial HTS Run Visual Score: L2 (Dead L3)
- Initial HTS Run mOD: 134 mOD
- 5 Day Visual Score V1: L1
- 5 Day Visual Score V2: B (low broodsize (25-100 progeny))
- 5 Day Visual Score V3: OK (no effect (˜1000+ progeny))
- 5 Day Visual Score V4: OK (no effect (˜1000+ progeny))
- 5 Day Visual Score V5: OK (no effect (˜1000+ progeny))
- 5 Day Visual Score V6: OK (no effect (˜1000+ progeny))

Compound: CC1CCN(c2nc(NCc3ccccc3)ns2)CC1 [compound 261]
- Follow-up HTS Run % Run: 96%
- Follow-up HTS Run mOD: 155 mOD
- Initial HTS Run % Run: 96%
- Initial HTS Run Visual Score: L3/L4/AD/B!
- Initial HTS Run mOD: 106 mOD
- 5 Day Visual Score V1: Dead
- 5 Day Visual Score V3: OK (no effect (˜1000+ progeny))
- 5 Day Visual Score V4: OK (no effect (˜1000+ progeny))
- 5 Day Visual Score V5: OK (no effect (˜1000+ progeny))
- 5 Day Visual Score V6: OK (no effect (˜1000+ progeny))

Compound: OC1CCN(c2nc(NCc3ccccc3)ns2)CC1 [compound 262]
- Follow-up HTS Run % Run: 106%
- Follow-up HTS Run mOD: 171 mOD
- Initial HTS Run % Run: 110%
- Initial HTS Run Visual Score: L3/L4/AD/B!
- Initial HTS Run mOD: 121 mOD
- 5 Day Visual Score V1: L4/#AD/B!
- 5 Day Visual Score V2: < (reduced broodsize (250-500 progeny))
- 5 Day Visual Score V3: OK (no effect (˜1000+ progeny))
- 5 Day Visual Score V4: OK (no effect (˜1000+ progeny))
- 5 Day Visual Score V5: OK (no effect (˜1000+ progeny))
- 5 Day Visual Score V6: OK (no effect (˜1000+ progeny))

Compound: OCC1CCCN(c2nc(NCc3ccccc3)ns2)C1 (centres unmarked) [compound 263]
- Follow-up HTS Run % Run: 104%
- Follow-up HTS Run mOD: 167 mOD
- Initial HTS Run % Run: 110%
- Initial HTS Run mOD: 121 mOD
- 5 Day Visual Score V2: ˜B (moderate broodsize (100-250 progeny))
- 5 Day Visual Score V3: OK (no effect (˜1000+ progeny))
- 5 Day Visual Score V4: OK (no effect (˜1000+ progeny))
- 5 Day Visual Score V5: OK (no effect (˜1000+ progeny))
- 5 Day Visual Score V6: OK (no effect (˜1000+ progeny))

Compound: CC1CC(C)CN(c2nc(NCc3ccccc3)ns2)C1 (centres unmarked) [compound 264]
- Follow-up HTS Run % Run: 110%
- Follow-up HTS Run Visual Score: L4/AD/B
- Follow-up HTS Run mOD: 177 mOD
- Initial HTS Run % Run: 104%
- Initial HTS Run Visual Score: L4/AD/B
- Initial HTS Run mOD: 114 mOD
- 5 Day Visual Score V1: L2
- 5 Day Visual Score V3: < (reduced broodsize (250-500 progeny))
- 5 Day Visual Score V4: OK (no effect (˜1000+ progeny))
- 5 Day Visual Score V5: OK (no effect (˜1000+ progeny))
- 5 Day Visual Score V6: OK (no effect (˜1000+ progeny))
